From US10357484B2, “Heterocyclic compound” (Takeda Pharmaceutical Company Limited, priority 2015, dated 2019) come the findings set out here.

Molecules are shown by their SMILES.

What all share (format): biochemical
One experiment has as its target T1, HDAC6 enzyme (Homo sapiens, UniProt Q9UBN7).
T1 construct: transducing full length HDAC1 and HDAC6 genes into Sf-9 insect cells; GST; purchased SignalChem; host or cells: Sf-9 insect cells
T1 sequence (Q9UBN7 1-1215): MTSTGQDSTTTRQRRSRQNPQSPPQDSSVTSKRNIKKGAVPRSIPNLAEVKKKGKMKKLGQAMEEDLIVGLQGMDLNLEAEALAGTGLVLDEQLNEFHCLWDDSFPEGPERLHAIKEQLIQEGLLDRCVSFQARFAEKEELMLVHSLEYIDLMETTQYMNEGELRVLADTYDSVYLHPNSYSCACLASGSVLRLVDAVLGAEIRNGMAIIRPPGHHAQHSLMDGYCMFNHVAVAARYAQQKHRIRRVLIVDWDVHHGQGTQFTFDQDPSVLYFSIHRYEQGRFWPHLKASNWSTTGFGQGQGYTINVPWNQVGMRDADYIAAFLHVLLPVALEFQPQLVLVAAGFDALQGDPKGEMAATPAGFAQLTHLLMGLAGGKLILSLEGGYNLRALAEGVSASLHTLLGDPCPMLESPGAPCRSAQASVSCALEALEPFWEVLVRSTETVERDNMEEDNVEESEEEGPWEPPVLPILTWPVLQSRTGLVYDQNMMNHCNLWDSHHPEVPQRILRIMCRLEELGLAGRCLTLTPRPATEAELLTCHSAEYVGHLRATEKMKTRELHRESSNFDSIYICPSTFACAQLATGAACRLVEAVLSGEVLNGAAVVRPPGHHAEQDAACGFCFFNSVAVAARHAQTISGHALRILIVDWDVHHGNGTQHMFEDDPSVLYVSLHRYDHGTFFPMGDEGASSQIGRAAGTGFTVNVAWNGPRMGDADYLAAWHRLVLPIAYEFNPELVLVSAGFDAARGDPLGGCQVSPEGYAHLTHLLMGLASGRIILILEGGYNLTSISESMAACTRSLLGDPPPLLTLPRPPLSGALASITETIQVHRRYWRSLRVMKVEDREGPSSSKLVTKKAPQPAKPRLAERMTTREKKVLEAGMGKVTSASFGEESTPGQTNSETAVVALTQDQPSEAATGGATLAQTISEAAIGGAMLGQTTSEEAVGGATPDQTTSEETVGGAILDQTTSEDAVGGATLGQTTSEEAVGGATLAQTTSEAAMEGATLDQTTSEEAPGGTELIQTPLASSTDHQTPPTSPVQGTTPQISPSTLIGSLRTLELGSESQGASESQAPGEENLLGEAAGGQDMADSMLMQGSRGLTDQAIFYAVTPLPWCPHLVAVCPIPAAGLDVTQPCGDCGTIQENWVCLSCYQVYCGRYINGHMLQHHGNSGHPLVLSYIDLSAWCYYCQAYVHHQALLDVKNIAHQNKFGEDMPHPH
Briefly: HDAC6 enzyme inhibitory assay (HDAC-Glo I/II Assay kit). The conditions noted are these: 1 μM test compound; wells without enzyme = 100% inhibition; read-out: HDAC6 inhibitory rate (%) (1 μM). The protocol:
(§1) HDAC1/6 Enzyme Inhibitory Assay
(§2) HDAC1 enzyme and HDAC6 enzyme each prepared by transducing full length HDAC1 and HDAC6 genes into Sf-9 insect cells and purifying by GST affinity column were purchased from SignalChem. Using these enzymes, HDAC1 and/or HDAC6 enzyme inhibitory activities of the compound of the present invention were evaluated. Enzymes were used after preserved at −70° C. HDAC1 or HDAC6 enzyme inhibitory activity of the compound of the present invention was measured using HDAC-Glo™ I/II Assay kit (Promega) according to the following experimental method. The test compound diluted with assay buffer (24 mM Tris-HCl (pH 7.5), 1 mM MgCl2, 0.35 mM KCl, 135 mM NaCl, 0.6 mM Glutathione, 0.01% Tween-20) was added to a 384-well plate by each 2 μL. Then, HDAC1 or HDAC6 enzyme solution diluted with assay buffer was added thereto by each 4 μL, and the plate was incubated at room temperature for 60 min. After incubated, HDAC substrate-Developer solution prepared according to Promega protocol attached to the assay kit was added to the 384-well plate by each 2 μL, and the enzyme reaction was started. After reacting at room temperature for 20 min, luminescence level was measured using plate reader Envision (PerkinElmer). The inhibitory activity of each compound was calculated as a relative activity value when luminescence level in wells without enzyme is considered as 100% inhibition.

Another experiment concerns the target T2, HDAC1 enzyme (Homo sapiens, UniProt Q13547).
T2 construct: transducing full length HDAC1 and HDAC6 genes into Sf-9 insect cells; GST; purchased SignalChem; host or cells: Sf-9 insect cells
As to the kind of experiment: HDAC1 enzyme inhibitory assay (HDAC-Glo I/II Assay kit). The conditions noted are these: 1 μM test compound; wells without enzyme = 100% inhibition; read-out: HDAC1 inhibitory rate (%) (1 μM). The protocol: as §1, §2

Another experiment addresses T3, HDAC9 enzyme (Homo sapiens, UniProt Q9UKV0).
T3 construct: transducing full length HDAC9 gene into Sf-9 insect cells; made in house; host or cells: Sf-9 insect cells
As to the kind of experiment: HDAC9 enzyme inhibitory assay (HDAC-Glo class IIa). The conditions noted are these: 1 μM test compound; wells without enzyme = 100% inhibition; read-out: HDAC9 inhibitory rate (%) (1 μM). On the procedure: HDAC9 Enzyme Inhibitory Assay
Enzyme was prepared by transducing full length HDAC9 gene into Sf-9 insect cells and purifying by Ni-NTA affinity column, and HDAC9 enzyme inhibitory activity was evaluated. Enzymes were used after preserved at −70° C. HDAC9 enzyme inhibitory activity of the test compound was measured using HDAC-Glo class IIa (Promega) according to the following experimental method. The test compound diluted with assay buffer (24 mM Tris-HCl (pH 7.5), 1 mM MgCl2, 0.35 mM KCl, 135 mM NaCl, 0.6 mM Glutathione, 0.01% Tween-20) was added to a 384-well plate by each 2 μL. Then, HDAC9 enzyme solution diluted with assay buffer was added thereto by each 2 μL, and the plate was incubated at room temperature for 60 min. After incubated, HDAC substrate-Developer solution prepared according to Promega protocol was added to the 384-well plate by each 4 μL, and the enzyme reaction was started. After reacting at room temperature for 20 min, luminescence level was measured using plate reader Envision (PerkinElmer). The inhibitory activity of each compound was calculated as a relative activity value when luminescence level in wells without enzyme is considered as 100% inhibition.

T3 sequence (Q9UKV0 whole entry, species assumed): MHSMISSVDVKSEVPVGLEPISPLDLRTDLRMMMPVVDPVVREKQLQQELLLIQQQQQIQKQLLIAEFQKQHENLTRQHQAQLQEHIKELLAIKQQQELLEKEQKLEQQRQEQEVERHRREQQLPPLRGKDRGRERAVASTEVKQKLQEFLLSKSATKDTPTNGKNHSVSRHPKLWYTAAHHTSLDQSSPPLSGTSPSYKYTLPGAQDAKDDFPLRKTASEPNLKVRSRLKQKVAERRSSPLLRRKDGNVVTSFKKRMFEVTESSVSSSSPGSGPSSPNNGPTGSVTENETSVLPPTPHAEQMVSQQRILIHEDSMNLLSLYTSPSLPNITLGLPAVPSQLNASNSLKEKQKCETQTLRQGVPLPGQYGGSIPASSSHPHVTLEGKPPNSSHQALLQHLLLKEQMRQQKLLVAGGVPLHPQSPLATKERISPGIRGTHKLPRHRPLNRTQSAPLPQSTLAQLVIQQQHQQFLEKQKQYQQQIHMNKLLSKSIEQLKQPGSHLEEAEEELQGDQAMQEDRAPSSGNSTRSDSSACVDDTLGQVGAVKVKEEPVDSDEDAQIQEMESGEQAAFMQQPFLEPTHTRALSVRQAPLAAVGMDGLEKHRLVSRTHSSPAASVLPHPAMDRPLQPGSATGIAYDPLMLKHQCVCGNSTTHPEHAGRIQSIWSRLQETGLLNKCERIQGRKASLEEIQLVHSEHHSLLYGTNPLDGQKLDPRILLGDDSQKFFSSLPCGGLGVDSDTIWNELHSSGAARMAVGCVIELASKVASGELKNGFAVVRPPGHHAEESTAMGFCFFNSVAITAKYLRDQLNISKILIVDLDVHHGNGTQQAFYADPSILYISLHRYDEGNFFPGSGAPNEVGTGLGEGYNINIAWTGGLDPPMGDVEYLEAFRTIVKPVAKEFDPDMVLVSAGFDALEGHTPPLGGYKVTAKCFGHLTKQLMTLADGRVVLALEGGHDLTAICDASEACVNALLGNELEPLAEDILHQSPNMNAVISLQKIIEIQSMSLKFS
T2 sequence (Q13547 whole entry): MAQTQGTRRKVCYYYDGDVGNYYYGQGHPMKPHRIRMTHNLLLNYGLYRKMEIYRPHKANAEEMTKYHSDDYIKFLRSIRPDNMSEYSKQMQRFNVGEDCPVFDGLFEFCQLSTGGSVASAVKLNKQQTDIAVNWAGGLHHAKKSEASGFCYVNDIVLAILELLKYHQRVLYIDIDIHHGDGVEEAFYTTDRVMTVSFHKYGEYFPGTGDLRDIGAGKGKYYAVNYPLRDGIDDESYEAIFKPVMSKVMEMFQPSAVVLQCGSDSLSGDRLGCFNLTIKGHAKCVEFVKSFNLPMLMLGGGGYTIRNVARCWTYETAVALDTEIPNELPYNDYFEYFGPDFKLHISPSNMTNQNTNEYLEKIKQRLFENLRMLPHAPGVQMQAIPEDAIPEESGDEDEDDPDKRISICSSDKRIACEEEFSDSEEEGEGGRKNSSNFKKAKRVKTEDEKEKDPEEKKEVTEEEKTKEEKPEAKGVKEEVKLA

Regarding `Cc1cc(CN2Cc3ccc(-c4noc(C(F)(F)F)n4)cc3C2=O)nn1C` [Example 38, 2-((1,5-dimethyl-1H-pyrazol-3-yl)methyl)-6-(5-(trifluoromethyl)-1,2,4-oxadiazol-3-yl)isoindolin-1-one], the inhibition at 1 µM on HDAC6 enzyme was 97%; on HDAC1 enzyme, 23%; at HDAC9 enzyme, 85%.

As to `COc1cccc([C@H](C)N2Cc3ccc(-c4noc(C(F)(F)F)n4)cc3C2=O)c1` [Example 19, 2-((1S)-1-(3-methoxyphenyl)ethyl)-6-(5-(trifluoromethyl)-1,2,4-oxadiazol-3-yl)isoindolin-1-one], the inhibition at 1 µM on HDAC6 enzyme came out at 99%; at HDAC1 enzyme, 29%; on HDAC9 enzyme it was 87%.

For the compound `COc1ncccc1CN1Cc2ccc(-c3noc(C(F)(F)F)n3)cc2C1=O` [Example 33, 2-((2-methoxypyridin-3-yl)methyl)-6-(5-(trifluoromethyl)-1,2,4-oxadiazol-3-yl)isoindolin-1-one], the inhibition at 1 µM turned out to be 98% on HDAC6 enzyme, 19% on HDAC1 enzyme and 77% on HDAC9 enzyme.

For `Cc1csc(CN2Cc3ccc(-c4noc(C(F)(F)F)n4)cc3C2=O)n1` [Example 37, 2-((4-methyl-1,3-thiazol-2-yl)methyl)-6-(5-(trifluoromethyl)-1,2,4-oxadiazol-3-yl)isoindolin-1-one], the inhibition at 1 µM on HDAC6 enzyme was 96%; at HDAC1 enzyme it was 20%; on HDAC9 enzyme it was 84%.

As to `C[C@@H](c1ccc(F)cc1F)N1Cc2ccc(-c3noc(C(F)(F)F)n3)cc2C1=O` [Example 17, 2-((1S)-1-(2,4-difluorophenyl)ethyl)-6-(5-(trifluoromethyl)-1,2,4-oxadiazol-3-yl)isoindolin-1-one], the figures for the inhibition at 1 µM on HDAC6 enzyme, on HDAC1 enzyme and at HDAC9 enzyme were 95%, 12% and 74%, respectively.

Consider `C[C@@H](c1ccc(Cl)cc1)N1Cc2ccc(-c3noc(C(F)(F)F)n3)cc2C1=O` [Example 14, 2-((1S)-1-(4-chlorophenyl)ethyl)-6-(5-(trifluoromethyl)-1,2,4-oxadiazol-3-yl)isoindolin-1-one], for which the inhibition at 1 µM on HDAC6 enzyme was 88%; on HDAC1 enzyme, 9%; at HDAC9 enzyme, 76%.

Regarding `C[C@H](c1cccc2ccccc12)N1Cc2ccc(-c3noc(C(F)(F)F)n3)cc2C1=O` [Example 23, 2-((1R)-1-(1-naphthyl)ethyl)-6-(5-(trifluoromethyl)-1,2,4-oxadiazol-3-yl)isoindolin-1-one], the inhibition at 1 µM on HDAC6 enzyme amounted to 99%; at HDAC1 enzyme, 4%; on HDAC9 enzyme it was 28%.

In the case of `C[C@H](c1ccccc1)N1Cc2ccc(-c3noc(C(F)(F)F)n3)cc2C1=O` [Example 7, 2-((1R)-1-phenylethyl)-6-(5-(trifluoromethyl)-1,2,4-oxadiazol-3-yl)isoindolin-1-one], the inhibition at 1 µM turned out to be 95% on HDAC6 enzyme, 17% on HDAC1 enzyme and 78% on HDAC9 enzyme.

With `CC(c1cccnc1)N1Cc2ncc(-c3noc(C(F)(F)F)n3)cc2C1=O` (stereo not drawn) [Example 5, 6-(1-(pyridin-3-yl)ethyl)-3-(5-(trifluoromethyl)-1,2,4-oxadiazol-3-yl)-6,7-dihydro-5H-pyrrolo[3,4-b]pyridin-5-one], the inhibition at 1 µM at HDAC6 enzyme amounted to 97%; at HDAC1 enzyme, 43%; at HDAC9 enzyme it was 93%.

Turning to `C[C@@H](c1ccc(F)cc1)N1Cc2ccc(-c3noc(C(F)(F)F)n3)cc2C1=O` [Example 13, 2-((1S)-1-(4-fluorophenyl)ethyl)-6-(5-(trifluoromethyl)-1,2,4-oxadiazol-3-yl)isoindolin-1-one], the inhibition at 1 µM stood at 90% on HDAC6 enzyme, 14% on HDAC1 enzyme and 79% on HDAC9 enzyme.

As for `O=C1c2cc(-c3noc(C(F)(F)F)n3)ccc2CN1Cc1ccccc1OC(F)(F)F` [Example 26, 2-(2-(trifluoromethoxy)benzyl)-6-(5-(trifluoromethyl)-1,2,4-oxadiazol-3-yl)isoindolin-1-one], the inhibition at 1 µM at HDAC6 enzyme stood at 95%; at HDAC1 enzyme, 8%; on HDAC9 enzyme it was 58%.

As to `O=C1c2cc(-c3noc(C(F)(F)F)n3)cnc2CN1Cc1cccnc1` [Example 4, 6-(pyridin-3-ylmethyl)-3-(5-(trifluoromethyl)-1,2,4-oxadiazol-3-yl)-6,7-dihydro-5H-pyrrolo[3,4-b]pyridin-5-one], the results for the inhibition at 1 µM at HDAC6 enzyme, on HDAC1 enzyme and at HDAC9 enzyme were 93%, 43% and 93%, respectively.
